Laboratory results reported in the CATMoS acute toxicity set (Mansouri et al. 2021).
*1 amine or outer side, *2 acyl side, *3 side chain or, on linkers, in order; H or OH if unused. Where a SMILES comes first, the peptide text is derived from it. Bridges are numbered along the chain shown (N, C = ends). [ ]: non-standard residue; d: D form. The star is where a group is joined. X5 = O=C(NC(=O)[*:2])C(N[*:1])c1cc(Cl)c(O)c(Cl)c1; X3 = NCCCCN(C(=O)C(N[*:1])c1ccc(O)cc1)C(=O)[*:2]; X4 = NC1=NC(CC(N[*:1])C(=O)[*:2])CN1; Hpg = N[CH](C(=O)O)c1ccc(O)cc1; X2 = CCC(C)CCCC/C=C/C=C/C(=O)*; Cit = NC(=O)NCCC[CH](N)C(=O)O

experiment: GHS categories as the set defines them, by LD50: 1 up to 5, 2 up to 50, 3 up to 300, 4 up to 2000, 5 above 2000 mg/kg; details: rat; in vivo; po

Row | SMILES | GHS category
1 | CCC(C)CCCC/C=C/C=C/C(=O)NC(CC(=O)O)C(=O)NC1C(=O)NC(c2ccc(O)cc2)C(=O)N(CCCCN)C(=O)NC(C(C)O)C(=O)NC(c2ccc(O)cc2)C(=O)NC(c2ccc(O)cc2)C(=O)NC(C(C)O)C(=O)NC(CCCNC(N)=O)C(=O)NC(CC2CNC(N)=N2)C(=O)NC(c2ccc(O)cc2)C(=O)NC(CO)C(=O)NC(c2cc(Cl)c(O)c(Cl)c2)C(=O)NC(=O)NC(CC2CNC(N)=N2)C(=O)NC(C)C(=O)NC(c2ccc(O)cc2)C(=O)OC1C (configuration not stated) (X2-DT[X3]T[Hpg][Hpg]T[Cit][X4][Hpg]S[X5][X4]A[Hpg]; ester 2-C; configuration not given here) | 5
2 | CCOc1cc(C)c2[nH]c(=O)sc2c1 | 5
3 | C[C@H]1CCCC(=O)CCCC=Cc2cc(O)cc(O)c2C(=O)O1 | 5
4 | CCC(C)(C)c1ccc(OP(=O)(NC)OC)c(Cl)c1 (configuration not stated) | 3
5 | CC[C@H]1OC(=O)[C@H](C)[C@@H](O[C@H]2C[C@@](C)(OC)[C@@H](O)[C@H](C)O2)[C@H](C)[C@@H](O[C@@H]2O[C@H](C)C[C@H](N(C)C)[C@H]2O)[C@](C)(O)C[C@@H](C)CN(C)[C@H](C)[C@@H](O)[C@]1(C)O | 5
6 | CCCCCCCCOCCCCCCCC | 5
7 | CC(CC=O)c1ccccc1 (configuration not stated) | 5
8 | CCCCCCCCCCCCCCCCN(C)C | 5
9 | O=C(c1ccccc1)C1(O)CCCCC1 | 5
10 | O=C1Nc2ccccc2C1=O | 5
11 | NC(N)=NCc1ccc2c(c1)OCCO2 | 5
12 | CCCCCCCCC(O)CCO (configuration not stated) | 5
13 | CCOc1nc2cccc(C(=O)O)c2n1Cc1ccc(-c2ccccc2-c2nnn[nH]2)cc1 | 5
14 | C=CC(=O)OCC1(CC)COCOC1 | 5
15 | O=C(O)[C@H]1O[C@@H](O)[C@@H](O)[C@@H](O)[C@@H]1O | 5
16 | CC=CCCC1CCCC(=O)O1 (configuration not stated) | 5
17 | C[N+](C)(C)CC(=O)[O-] | 5
18 | CC12CCC3c4ccc(OC(=O)c5ccccc5)cc4CCC3C1CCC2OC(=O)CO (configuration not stated) | 5
19 | CC(C)(C)C(=O)OCOC(=O)[C@@H]1N2C(=O)[C@@H](NC(=O)[C@H](N)c3ccccc3)[C@H]2SC1(C)C | 5
20 | C=CC(C)(CCC=C(C)C)OC(=O)c1ccccc1 (configuration not stated) | 5
21 | COc1nc2cc(Cl)ccc2o1 | 4
22 | CCCCCC1C(=O)CCC1CC(C)=O (configuration not stated) | 5
23 | CSc1nc(N)c2c(C)coc2n1 | 5
24 | CC1CNCCN1SC=S (configuration not stated) | 5
25 | C[C@@H]1O[C@@H](O[C@@H]2[C@@H](O)[C@H](OCCc3ccc(O)c(O)c3)O[C@H](CO)[C@H]2OC(=O)C=Cc2ccc(O)c(O)c2)[C@H](O)[C@H](O)[C@H]1O | 5
26 | CCCCCCOC(=O)C(C)C | 5

Row | SMILES | GHS category
27 | CCC1OC(=O)C(C)C(OC2CC(C)(OC)C(O)C(C)O2)C(C)C(OC2OC(C)CC(N(C)C)C2O)C(C)(O)CC(C)(F)C(=O)C(C)C(O)C1(C)O (configuration not stated) | 5
28 | O=C1OCc2c(Cl)cccc21 | 4
29 | C=CC(C)(CCC=C(C)C)OC(=O)C(C)C (configuration not stated) | 5
30 | CON(C)C(=O)Nc1cc(C(C)(C)C)ns1 | 4
31 | N#CCN(CC#N)CC#N | 3
32 | CC(C)(C)c1cc(CCC(=O)OCC(COC(=O)CCc2cc(C(C)(C)C)c(O)c(C(C)(C)C)c2)(COC(=O)CCc2cc(C(C)(C)C)c(O)c(C(C)(C)C)c2)COC(=O)CCc2cc(C(C)(C)C)c(O)c(C(C)(C)C)c2)cc(C(C)(C)C)c1O | 5
33 | NC(=O)c1cn(CCO)nc1[N+](=O)[O-] | 5
34 | C=C(C)C1CCC(C)C(O)C1 (configuration not stated) | 5
35 | O=[N+]([O-])c1ccc(C=NOCc2cccc([N+](=O)[O-])c2)cc1 | 4
36 | Cc1cccc(OC(=O)c2cc(Cl)ccc2OC(N)=O)c1 | 5
37 | O=C[C@H](O)[C@@H](O)[C@H](O)[C@H](O)CO[C@H]1O[C@H](CO[C@H]2O[C@H](CO)[C@@H](O)[C@H](O)[C@H]2O)[C@@H](O)[C@H](O)[C@H]1O | 5
38 | CC(C)=NO | 5
39 | O=C1c2ccccc2C(=O)C1c1ccc2ccccc2n1 | 5
40 | CCCCCCCCCCCCC1=C(OC(C)=O)C(=O)c2ccccc2C1=O | 5
41 | Cc1cccc(C)c1OP(=O)(Oc1cccc(OP(=O)(Oc2c(C)cccc2C)Oc2c(C)cccc2C)c1)Oc1c(C)cccc1C | 5
42 | COc1cc(OC)nc(NC(=O)NS(=O)(=O)Cc2ccccc2C(=O)O)n1 | 5
43 | CCOC(=O)[C@H](CCc1ccccc1)N[C@@H](C)C(=O)N1CC2(C[C@H]1C(=O)O)SCCS2 | 5
44 | CCCCCCCC(O)CCO (configuration not stated) | 5
45 | CC(=O)Nc1c(I)c(NC(C)=O)c(I)c(C(=O)O)c1I | 5
46 | CC(C)COC(=O)Cc1ccccc1 | 5
47 | COc1ccccc1N1CCN(/C(N)=N/c2cc(Cl)cc(Cl)c2)CC1 | 4
48 | CCCCC(CC)COC(=O)c1ccc(Nc2nc(Nc3ccc(C(=O)NC(C)(C)C)cc3)nc(Nc3ccc(C(=O)OCC(CC)CCCC)cc3)n2)cc1 (configuration not stated) | 5
49 | Cc1ccccc1OP(Oc1ccccc1C)Oc1ccccc1C | 4
50 | CC(=O)Oc1ccccc1C(=O)Nc1ncc([N+](=O)[O-])s1 | 5
51 | CCCCC1C=C(C)CC(C)O1 (configuration not stated) | 5
52 | Cc1c(C)c2c(c(C)c1O)CCC(C)(COc1ccc(CC3SC(=O)NC3=O)cc1)O2 (configuration not stated) | 5
